In US6890887B2, “Synergistic herbicidal methods and compositions comprising dinitroaniline and imidazolinone compounds” (BASF Aktiengesellschaft, priority 1999, dated 2005):

Assays:
Assay in all cases: Preemergence field plot evaluation of percent weed control
Assay type in all cases: in vivo
Conditions in all cases: visual, 60 days after application
Setaria verticilliata = tested on: Setaria verticilliata
Protocol: (§1) In the following examples, synergism is determined by the Colby^1 method, i.e. the expected (or predicted) response of the combination is calculated by taking the product of the observed response for each individual component of the combination when applied alone divided by 100 and subtracting this value from the sum of the observed response for each component when applied alone. Synergism of the combination is then determined by comparing the observed response of the combination to the expected (or predicted) response as calculated from the observed response of each individual component alone.
(§2) The foregoing is illustrated mathematically below, wherein a combination, C, is composed of component A plus component B and Obs. designates the observed response of the combination C. [formula]
(§3) Formulations containing imazamox^1, pendimethalin^2 and an imazamox/pendimethalin combination^3 are diluted with water and applied preemergence at volumes of 200 L/ha to 400 L/ha to field plots to provide the rates shown in Table I. 60 days after application, the plots are visually evaluted for percent weed control. The results are summarized in Table I. If more than one plot is included in an evaluation, the results are averaged.
(§4) ^1 BOLERO® 40 SL, an imazamox aqueous concentrate commercially available from American Cyanamid Company, Parsippany, N.J.
(§5) ^2 STOMP® 400 SC, a pendimethalin suspension concentrate commercially available from American Cyanamid Company, Parsippany, N.J.
(§6) ^3 An emulsifiable concentrate containing imazamox and pendimethalin.

Poa annua = tested on: Poa annua
Protocol: as §1, §2, §3, §4, §5, §6

Polygonum persicaria = tested on: Polygonum persicaria
Protocol: as §1, §2, §3, §4, §5, §6

Row | SMILES | % Weed Control Observed (Setaria verticilliata; imazamox 75 g/ha alone) [%] | % Weed Control Observed (Poa annua; imazamox 75 g/ha alone) [%] | % Weed Control Observed (Polygonum persicaria; imazamox 75 g/ha alone) [%] | % Weed Control Observed (Setaria verticilliata; pendimethalin 1,125 g/ha alone) [%] | % Weed Control Observed (Poa annua; pendimethalin 1,125 g/ha alone) [%] | % Weed Control Observed (Polygonum persicaria; pendimethalin 1,125 g/ha alone) [%]
1 | COCc1cnc(C2=NC(C)(C(C)C)C(=O)N2)c(C(=O)O)c1 (stereo not drawn) [Imazamox, 2-(4-isopropyl-4-methyl-5-oxo-2-imidazolin-2-yl)-5-(methoxymethyl)nicotinic acid] | 45 | 68 | 66 |  |  | 
2 | CCC(CC)Nc1c([N+](=O)[O-])cc(C)c(C)c1[N+](=O)[O-] [Pendimethalin] |  |  |  | 86 | 63 | 76
